Experiments:
RPMI-8226 = assay: NCI 60 antitumor screening (single dose / five doses); type: cell-based; settings: Homo sapiens; RPMI-8226 (leukaemia), single dose 10 μM; read-out: Growth inhibition percentage (GI %)
SR = assay: as above; type: cell-based; settings: Homo sapiens; SR (leukaemia), single dose 10 μM; read-out: Growth inhibition percentage (GI %)
EKVX = assay: as above; type: cell-based; settings: Homo sapiens; EKVX (non-small cell lung cancer), single dose 10 μM; read-out: Growth inhibition percentage (GI %)
A549/ATCC = assay: NCI 60 antitumor screening (single dose); type: cell-based; settings: Homo sapiens; A549/ATCC (non-small cell lung cancer), single dose 10 μM; read-out: Growth inhibition percentage (GI %)
Procedure: (§1) Initially, the anticancer effects of target compounds have been assessed at a single (10 μM) dose. The obtained data have been reported as mean-graph of the percent growth (G%) of the treated cancer cells. Percentage growth inhibition (GI%) is calculated (100 − G%) and pronounced in Table 1. […] Target compounds in series (III) with manipulated linkers disclosed lower potency. Superiorly, eight s-triazine derivatives from the three series (6a, 6c, 6d, 7a, 7g, 7i, 7l, and 8b) have shown potent broad-spectrum anticancer activity against most the examined cell lines, whereas most of the remaining triazine derivatives, 20 derivatives, have exerted selective anti-proliferative actions towards certain cancer cell lines (Supplementary).
(§2) The antitumor screening was performed for 60 human cancer cell lines under the protocol of NCI (www.dtp.nci.nih.gov), the Drug Evaluation Branch, Bethesda, MD. All submitted compounds were nominated based on the degree of structural diversity and computer modelling techniques for evaluation of their anticancer activity. The screening process for antineoplastic activity passes through two successive levels, starting with the assessment of target compounds at a single dose of 10 μM against 60 cancer cell lines on nine types of human tumours. These experiments were done on a triplicate following. The output from the single‐dose screening was covered as a mean graph, and then, analysed by the COMPARE program. Finally, the compounds which disclosed subpanel cancer cell growth (G %) equal to or less than 10% in at least eight cancer cell lines get to pass the assessment against the 60 cell lines at five doses (0.01–100 μM). By using GraphPad Prism version 9.0 (Graphpad Software Inc., La Jolla, CA), GI50, TGI, as well as LC50 dose‐response parameters were computed and presented for each compound (Supplementary information)[55–57].

CAKI-1 = assay: NCI 60 antitumor screening (single dose); type: cell-based; settings: Homo sapiens; CAKI-1 (renal cancer), single dose 10 μM; read-out: Growth inhibition percentage (GI %)
Procedure: as §1, §2

HCC-2998 = assay: NCI 60 antitumor screening (single dose); type: cell-based; settings: Homo sapiens; HCC-2998 (colon cancer), single dose 10 μM; read-out: Growth inhibition percentage (GI %)
Procedure: as §1, §2

HOP-62 = assay: NCI 60 antitumor screening (single dose); type: cell-based; settings: Homo sapiens; HOP-62 (non-small cell lung cancer), single dose 10 μM; read-out: Growth inhibition percentage (GI %)
Procedure: as §1, §2

HS 578T = assay: NCI 60 antitumor screening (single dose); type: cell-based; settings: Homo sapiens; HS 578T (breast cancer), single dose 10 μM; read-out: Growth inhibition percentage (GI %)
Procedure: as §1, §2

KM 12 = assay: NCI 60 antitumor screening (single dose); type: cell-based; settings: Homo sapiens, KM12; KM 12 (colon cancer), single dose 10 μM; read-out: Growth inhibition percentage (GI %)
Procedure: as §1, §2

NCI-H226 = assay: NCI 60 antitumor screening (single dose); type: cell-based; settings: Homo sapiens; NCI-H226 (non-small cell lung cancer), single dose 10 μM; read-out: Growth inhibition percentage (GI %)
Procedure: as §1, §2

NCI-H23 = assay: NCI 60 antitumor screening (single dose); type: cell-based; settings: Homo sapiens; NCI-H23 (non-small cell lung cancer), single dose 10 μM; read-out: Growth inhibition percentage (GI %)
Procedure: as §1, §2

NCI-H322M = assay: NCI 60 antitumor screening (single dose); type: cell-based; settings: Homo sapiens; NCI-H322M (non-small cell lung cancer), single dose 10 μM; read-out: Growth inhibition percentage (GI %)
Procedure: as §1, §2

NCI-H460 = assay: NCI 60 antitumor screening (single dose); type: cell-based; settings: Homo sapiens; NCI-H460 (non-small cell lung cancer), single dose 10 μM; read-out: Growth inhibition percentage (GI %)
Procedure: as §1, §2

NCI-H522 = assay: NCI 60 antitumor screening (single dose); type: cell-based; settings: Homo sapiens; NCI-H522 (non-small cell lung cancer), single dose 10 μM; read-out: Growth inhibition percentage (GI %)
Procedure: as §1, §2

OVCAR-3 = assay: NCI 60 antitumor screening (single dose); type: cell-based; settings: Homo sapiens; OVCAR-3 (ovarian cancer), single dose 10 μM; read-out: Growth inhibition percentage (GI %)
Procedure: as §1, §2

OVCAR-4 = assay: NCI 60 antitumor screening (single dose); type: cell-based; settings: Homo sapiens; OVCAR-4 (ovarian cancer), single dose 10 μM; read-out: Growth inhibition percentage (GI %)
Procedure: as §1, §2

OVCAR-5 = assay: NCI 60 antitumor screening (single dose); type: cell-based; settings: Homo sapiens; OVCAR-5 (ovarian cancer), single dose 10 μM; read-out: Growth inhibition percentage (GI %)
Procedure: as §1, §2

OVCAR-8 = assay: NCI 60 antitumor screening (single dose); type: cell-based; settings: Homo sapiens; OVCAR-8 (ovarian cancer), single dose 10 μM; read-out: Growth inhibition percentage (GI %)
Procedure: as §1, §2

PC-3 = assay: NCI 60 antitumor screening (single dose); type: cell-based; settings: Homo sapiens; PC-3 (prostate cancer), single dose 10 μM; read-out: Growth inhibition percentage (GI %)
Procedure: as §1, §2

SK-OV-3 = assay: NCI 60 antitumor screening (single dose); type: cell-based; settings: Homo sapiens; SK-OV-3 (ovarian cancer), single dose 10 μM; read-out: Growth inhibition percentage (GI %)
Procedure: as §1, §2

SNB-19 = assay: NCI 60 antitumor screening (single dose); type: cell-based; settings: Homo sapiens; SNB-19 (CNS cancer), single dose 10 μM; read-out: Growth inhibition percentage (GI %)
Procedure: as §1, §2

TK-10 = assay: NCI 60 antitumor screening (single dose); type: cell-based; settings: Homo sapiens; TK-10 (renal cancer), single dose 10 μM; read-out: Growth inhibition percentage (GI %)
Procedure: as §1, §2

U251 = assay: NCI 60 antitumor screening (single dose); type: cell-based; settings: Homo sapiens, U-251; U251 (CNS cancer), single dose 10 μM; read-out: Growth inhibition percentage (GI %)
Procedure: as §1, §2

SW-620 = assay: NCI 60 antitumor screening (single dose / five doses); type: cell-based, human; settings: Homo sapiens; SW-620 (colon cancer), single dose 10 μM; read-out: Growth inhibition percentage (GI %)
MALME-3M = assay: as above; type: cell-based; settings: Homo sapiens; MALME-3M (melanoma), single dose 10 μM; read-out: Growth inhibition percentage (GI %)
NCI/ADR-RES = assay: as above; type: cell-based; settings: Homo sapiens; NCI/ADR-RES (ovarian cancer), single dose 10 μM; read-out: Growth inhibition percentage (GI %)

| SMILES | inhibition at 10 µM (RPMI-8226) [%] | inhibition at 10 µM (SR) [%] | inhibition at 10 µM (EKVX) [%] | inhibition at 10 µM (A549/ATCC) [%] | inhibition at 10 µM (CAKI-1) [%] | inhibition at 10 µM (HCC-2998) [%] | inhibition at 10 µM (HOP-62) [%] | inhibition at 10 µM (HS 578T) [%] | inhibition at 10 µM (KM 12) [%] | inhibition at 10 µM (NCI-H226) [%] | inhibition at 10 µM (NCI-H23) [%] | inhibition at 10 µM (NCI-H322M) [%] | inhibition at 10 µM (NCI-H460) [%] | inhibition at 10 µM (NCI-H522) [%] | inhibition at 10 µM (OVCAR-3) [%] | inhibition at 10 µM (OVCAR-4) [%] | inhibition at 10 µM (OVCAR-5) [%] | inhibition at 10 µM (OVCAR-8) [%] | inhibition at 10 µM (PC-3) [%] | inhibition at 10 µM (SK-OV-3) [%] | other results |
| --- | --- | --- | --- | --- | --- | --- | --- | --- | --- | --- | --- | --- | --- | --- | --- | --- | --- | --- | --- | --- | --- |
| Brc1ccccc1/C=N/Nc1nc(N/N=C/c2ccccc2Br)nc(N2CCOCC2)n1 [compound 6b, 2,4-Bis[(E)-2-[(2-bromophenyl)methylidene]hydrazin-1-yl]-6-(morpholin-4-yl)-1,3,5-triazine] | 35 | 36.1 | 19.8 | 2.89 | -8.66 | 29.1 | -8.36 | -14.4 | 10.9 | 4.87 | -4.52 | 3.22 | -2.92 | 13.4 | 14.8 | 3.79 | -11.2 | 3.39 | 16 | -13.9 | inhibition at 10 µM (SNB-19): -1.04%; inhibition at 10 µM (TK-10): 0.58%; inhibition at 10 µM (U251): 3.53%; inhibition at 10 µM (SW-620): 3.31%; inhibition at 10 µM (MALME-3M): -42.9%; inhibition at 10 µM (NCI/ADR-RES): 8.51% |
| Brc1cccc(/C=N/Nc2nc(N/N=C/c3cccc(Br)c3)nc(N3CCCCC3)n2)c1 [compound 7c, 2,4-Bis[(E)-2-[(3-Bromophenyl)methylidene]hydrazin-1-yl]-6-(piperidin-1-yl)-1,3,5-triazine] | 11.8 | 12.9 | 22.4 | 10.6 | 0.79 | -2.01 | -8.46 | -21.2 | -6.72 | 8.12 | -5.83 | -3.53 | -2.41 | 8.55 | 0.95 | 11.6 | -15.9 | 2.62 | 19.8 | -9 | inhibition at 10 µM (SNB-19): -2.24%; inhibition at 10 µM (TK-10): -27.6%; inhibition at 10 µM (U251): 3.1%; inhibition at 10 µM (SW-620): -8.28%; inhibition at 10 µM (MALME-3M): 15.1%; inhibition at 10 µM (NCI/ADR-RES): 9.29% |
| Fc1cccc(/C=N/Nc2nc(N/N=C/c3cccc(F)c3)nc(N3CCCCC3)n2)c1 [compound 7e, 2,4-Bis[(E)-2-[(3-Fluorophenyl)methylidene]hydrazin-1-yl]-6-(piperidin-1-yl)-1,3,5-triazine] | 38.8 | 31.9 | 29.3 | 10.6 | 9.66 | 0.77 | -7.48 | -13.2 | 17.9 | 17.9 | 9.62 | -8.36 | 8.63 | 8.08 | 10.6 | 13.7 | -8.1 | 14.6 | 31.4 | -14.6 | inhibition at 10 µM (SNB-19): 3.96%; inhibition at 10 µM (TK-10): -20.6%; inhibition at 10 µM (U251): 5.46%; inhibition at 10 µM (SW-620): -7.5%; inhibition at 10 µM (MALME-3M): -0.5%; inhibition at 10 µM (NCI/ADR-RES): 23.9% |
| COC(=O)C(Cc1ccccc1)Nc1nc(NC(Cc2ccccc2)C(=O)OC)nc(N2CCOCC2)n1 (centres unmarked) [compound 8c, Methyl 2-({4-[(1-methoxy-1-oxo-3-phenylpropan-2-yl)amino]-6-(morpholin-4-yl)-1,3,5-triazin-2-yl}amino)-3-phenylpropanoate] | 1.47 | -0.37 | -4.54 | -8.33 | 13.2 | -9.86 | 2.66 | -1.3 | 0.3 | -1.61 | -6.51 | 2.57 | -6.88 | 9.02 | -11.1 | -6.53 | -6.25 | 0.4 | -2.72 | -2.71 | inhibition at 10 µM (SNB-19): -3.58%; inhibition at 10 µM (TK-10): -3.4%; inhibition at 10 µM (U251): -5.23%; inhibition at 10 µM (SW-620): -11.7%; inhibition at 10 µM (MALME-3M): -4.87%; inhibition at 10 µM (NCI/ADR-RES): -10.6% |
